Test results taken from PMC5104480 (PLoS ONE, 2016).

Key:
[1] = molecular target: T1, HLMs, UGT1A1, UGT1A6 and UGT1A9 (Homo sapiens, UniProt P22309); details: HLMs and UGT1A1; substrate chrysoeriol; compared with control
T1 sequence (P22309 26-533): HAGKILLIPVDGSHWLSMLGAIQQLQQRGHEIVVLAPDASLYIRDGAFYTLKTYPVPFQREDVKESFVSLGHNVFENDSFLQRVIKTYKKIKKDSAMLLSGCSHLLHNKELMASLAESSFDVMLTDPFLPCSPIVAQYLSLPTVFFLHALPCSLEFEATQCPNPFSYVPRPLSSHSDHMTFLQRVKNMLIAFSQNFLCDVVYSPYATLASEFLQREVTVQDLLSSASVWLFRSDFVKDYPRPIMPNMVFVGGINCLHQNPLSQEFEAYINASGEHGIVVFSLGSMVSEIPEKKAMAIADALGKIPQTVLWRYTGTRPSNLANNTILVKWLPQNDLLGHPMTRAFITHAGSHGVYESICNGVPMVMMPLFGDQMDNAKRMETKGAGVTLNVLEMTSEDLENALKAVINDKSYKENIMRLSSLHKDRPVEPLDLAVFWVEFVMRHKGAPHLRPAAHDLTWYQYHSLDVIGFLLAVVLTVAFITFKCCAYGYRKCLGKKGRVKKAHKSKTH
Description: (§1) The protein concentrations of the HLMs and expressed UGTs were 0.0021–0.0106 mg protein/mL. All of the incubations were run at 37°C for 30 min, and the way of pretreated and determined samples were as discribed above.

[2] = molecular target: T2, HLMs, UGT1A1, UGT1A6 and UGT1A9 (Homo sapiens, UniProt O60656); details: HLMs and UGT1A9, compared with control
T2 sequence (O60656 26-530): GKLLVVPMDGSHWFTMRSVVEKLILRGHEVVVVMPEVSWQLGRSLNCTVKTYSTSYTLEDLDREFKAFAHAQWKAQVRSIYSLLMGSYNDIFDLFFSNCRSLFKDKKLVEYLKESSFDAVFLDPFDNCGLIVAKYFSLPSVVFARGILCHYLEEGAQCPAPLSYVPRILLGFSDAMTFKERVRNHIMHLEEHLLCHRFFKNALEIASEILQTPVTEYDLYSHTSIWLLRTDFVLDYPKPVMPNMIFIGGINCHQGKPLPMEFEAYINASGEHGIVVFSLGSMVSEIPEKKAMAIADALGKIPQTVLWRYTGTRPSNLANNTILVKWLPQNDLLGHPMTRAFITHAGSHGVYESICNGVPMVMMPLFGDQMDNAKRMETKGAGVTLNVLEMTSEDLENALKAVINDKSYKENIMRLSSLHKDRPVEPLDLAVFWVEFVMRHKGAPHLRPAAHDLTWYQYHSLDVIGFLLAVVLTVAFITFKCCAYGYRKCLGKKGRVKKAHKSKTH
Description: as §1

HeLa cells = assay: Glucuronide formation in HeLa cells (control); details: HeLa cells without UGT1A9 (control)
Description: HeLa and HeLa—UGT1A9 cells were seeded into six-well plate at a density of 1.0 × 10^5 cells/well, and were grown using Dulbecco’s modified Eagle’smedium (DMEM) supplemented with 10% fetal bovine serum (FBS). After 3 ~ 4 days of seeding, the cells can be used for the glucuronidation experiments.
Brifely speaking, the cells were incubated at 37°C with loading solution (2 mL). […] The collected samples were mixed with 250 μL acetonitrile containing 25 nM tilianin and then analyzed by UHPLC—MS/MS after centrifugation at 13,000 rpm for 30 min. After the excretion experiment, the cells were washed and selected in 300 μL HBSS buffer, and then the cells were ultrasonicated. After centrifugation at 13,000 rpm for 30 min, the 200 μL supernatant was obtained and mixed with 100 μL acetonitrile containing 25 nM tilianin. The mixture was then centrifuged at 13,000 rpm for 30 min and prepared for subsequent UHPLC—MS/MS analysis.

A549 cells = assay: MTT assay, A549 cells, with and without Ko143; type: cell-based
Description: The cells were further incubated at 37°C with 5% CO2 for 48 h. The culture medium was removed and replaced with 100 μL 0.5 mg/mL 3-(4, 5-dimethylthiozol-2-yl)-3, 5-dipheryl tetrazolium bromide (MTT) solution and incubated at 37°C for 4 h. The supernatants were discarded, and 150 μL of dimethyl sulfoxide was added to each well. The plates were shaken for 10 min at room temperature, and then, the stained formazan product was determined at 570 nm with a multimode plate reader.

HepG2 cells = assay: MTT assay, HepG2 cells, with and without Ko143; type: cell-based
Description: The cells were further incubated at 37°C with 5% CO2 for 48 h. […] The supernatants were discarded, and 150 μL of dimethyl sulfoxide was added to each well. The plates were shaken for 10 min at room temperature, and then, the stained formazan product was determined at 570 nm with a multimode plate reader.

[3] = cited from earlier work
[4] = 10 μM substrate with 5 μM Ko143, 48 h
[5] = 10 μM substrate with 10 μM Ko143, 48 h
[6] = 10 μM substrate with 5 or 10 μM Ko143, 48 h

With `C=CC1=C(C)/C(=C/c2[nH]c(Cc3[nH]c(/C=C4\NC(=O)C(C)=C4C=C)c(C)c3CCC(=O)O)c(CCC(=O)O)c2C)NC1=O` [bilirubin] the “effect on formation of Chr-4′-G” value [1] was “significantly decrease”.

For `Cc1ccc(C(C)C)cc1O` [carvacrol], the “effect on formation of Chr-7-G” value ([2]; substrate chrysoeriol) was “significantly decrease” and the “effect on formation of Dio-3′-G” value ([2]; substrate diosmetin) was “significantly decrease”.

With `COc1cc(-c2cc(=O)c3c(O)cc(O)cc3o2)ccc1O` [chrysoeriol, 5,7,4′-trihydroxy-3′-methoxyflavone] the “glucuronided metabolites in HeLa cells” value (HeLa cells) was “did not find”, the “decrease of cell viability compared with substrate alone” value (from here on “decrease of cell viability”) (A549 cells; [4]) was 12% and the “decrease of cell viability” value (A549 cells; [5]) was 18%. For the same compound, the “change of cytotoxicity when treated with Ko143” value (HepG2 cells; [6]) was “little change”.

For `COc1ccc(-c2cc(=O)c3c(O)cc(O)cc3o2)cc1O` [diosmetin, 5,7,3′-trihydroxy-4′-methoxyflavone], the “change of cytotoxicity when treated with Ko143” value (A549 cells; [6]) was “little change”, the “decrease of cell viability” value (HepG2 cells; [4]) was 12% and the “decrease of cell viability” value (HepG2 cells; [5]) was 13%.

For acacetin glucuronide, the Km [3] is given as 14.5 µM.

In the case of genistein glucuronides, the Km [3] is listed as 15.1 µM.
